# Read-outs that look alike come from different tables or passages of the source.
# Legend:
# [1] = test system: hiPSC-derived neurons co-cultured with human primary astrocytes in 3D; assay: Ca2+ transient oscillation assay (FDSS), 3D spheroids; format: cell-based; details: 60 min
# Procedure, shortened: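 Fura-2 fluorescence was read twice for 20 min each: a baseline 10 min after 0.04% DMSO, and again 60 min after compound addition at nominal final concentration. The 3D co-cultures (1:1 hiPSC neurons from a donor and human astrocytes, 8000 each) matured 5 weeks in BrainPhys medium after a 1-week differentiation.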
# [2] = ref PharmaPendium, cited from earlier work
# [3] = test system: hiPSC-derived neurons co-cultured with human primary astrocytes in 2D; assay: Ca2+ transient oscillation assay (FDSS), 2D co-culture; format: cell-based; details: for activation at 0.04 µM / activation at 0.11 µM / activation at 0.33 µM / activation at 1 µM: Homo sapiens, 1 h, 60 min
# Procedure, shortened: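 hiPSC-derived excitatory neurons (CW50065, Quick-Neuron EX-SeV) co-cultured with human primary astrocytes at 4:1 (10,000:2500 cells per well). Cal-520-loaded cells in HBSS with 2 mM CaCl2 and 10 mM HEPES were pretreated with 0.04% DMSO.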
# [4] = read-out: Area under the curve - 2D Mean
# [5] = read-out: Peak amplitude - 2D Mean
# [6] = read-out: Peak-to-peak interval - 2D Mean
smiles,measurement,setting,value
CN1CCN(C2=Nc3cc(Cl)ccc3Nc3ccccc32)CC1 [Clozapine],Area under the curve - 3D Mean,[1]; 0.04 µM,150.1 % change from baseline
same,Peak Number—3D Mean,[1]; 0.04 µM,11.1 % change from baseline
same,Peak amplitude - 3D Mean,[1]; 0.04 µM,133.6 % change from baseline
same,Peak width - 3D Mean,[1]; 0.04 µM,6.2 % change from baseline
same,Peak-to-peak interval - 3D Mean,[1]; 0.04 µM,4.5 % change from baseline
same,Area under the curve - 3D Mean,[1]; 0.11 µM,153.9 % change from baseline
same,Peak Number—3D Mean,[1]; 0.11 µM,−10.0 % change from baseline
same,Peak amplitude - 3D Mean,[1]; 0.11 µM,130.9 % change from baseline
same,Peak width - 3D Mean,[1]; 0.11 µM,8.6 % change from baseline
same,Peak-to-peak interval - 3D Mean,[1]; 0.11 µM,19.2 % change from baseline
same,Area under the curve - 3D Mean,[1]; 0.33 µM,163.3 % change from baseline
same,Peak Number—3D Mean,[1]; 0.33 µM,−2.8 % change from baseline
same,Peak amplitude - 3D Mean,[1]; 0.33 µM,129.8 % change from baseline
same,Peak width - 3D Mean,[1]; 0.33 µM,14.0 % change from baseline
same,Peak-to-peak interval - 3D Mean,[1]; 0.33 µM,5.6 % change from baseline
same,Area under the curve - 3D Mean,[1]; 1 µM,182.8 % change from baseline
same,Peak Number—3D Mean,[1]; 1 µM,−13.9 % change from baseline
same,Peak amplitude - 3D Mean,[1]; 1 µM,129.4 % change from baseline
same,Peak width - 3D Mean,[1]; 1 µM,22.6 % change from baseline
same,Peak-to-peak interval - 3D Mean,[1]; 1 µM,14.2 % change from baseline
same,Free Cmax,"[2]; Table 1, peak plasma concentration in men, free therapeutic Cmax",300 nM
same,Free Cmax,"[2]; Table 2, highest plasma concentration in humans after the therapeutic dose",300 nM
same,"effect on peak number / Ca2+ neuronal oscillations, in words",[3]; 2D format,significantly increased peak number
same,activation at 0.04 µM,[3]; [4],28.5%
same,activation at 0.04 µM,[3]; read-out: Peak Number—2D Mean,15.3%
same,activation at 0.04 µM,[3]; [5],12.5%
same,activation at 0.04 µM,[3]; read-out: Peak width - 2D Mean,20.8%
same,activation at 0.04 µM,[3]; [6],1.2%
same,activation at 0.11 µM,[3]; [4],49%
same,activation at 0.11 µM,[3]; read-out: Peak Number—2D Mean,24.2%
same,activation at 0.11 µM,[3]; [5],16.7%
same,activation at 0.11 µM,[3]; read-out: Peak width - 2D Mean,35.5%
same,activation at 0.11 µM,[3]; [6],-15.5%
same,activation at 0.33 µM,[3]; [4],28.8%
same,activation at 0.33 µM,[3]; read-out: Peak Number—2D Mean,-15%
same,activation at 0.33 µM,[3]; [5],9.4%
same,activation at 0.33 µM,[3]; read-out: Peak width - 2D Mean,22.8%
same,activation at 0.33 µM,[3]; [6],82%
same,activation at 1 µM,[3]; [4],10.8%
same,activation at 1 µM,[3]; read-out: Peak Number—2D Mean,-8.3%
same,activation at 1 µM,[3]; [5],1%
same,activation at 1 µM,[3]; read-out: Peak width - 2D Mean,11%
same,activation at 1 µM,[3]; [6],2.7%
